# According to patent publication US8809347B2, “Bicyclic aryl and bicyclic heteroaryl substituted triazoles useful as AXL inhibitors” (Rigel Pharmaceuticals, Inc., priority 2006, dated 2014):
# pIC50: −log10 of the molar value.
# Target: T1, Axl (Homo sapiens, UniProt P30530)
# T1 construct: Cells: Hela cells; endogenous in cells; host or cells: HeLa cells
# T1 sequence (P30530 26-894): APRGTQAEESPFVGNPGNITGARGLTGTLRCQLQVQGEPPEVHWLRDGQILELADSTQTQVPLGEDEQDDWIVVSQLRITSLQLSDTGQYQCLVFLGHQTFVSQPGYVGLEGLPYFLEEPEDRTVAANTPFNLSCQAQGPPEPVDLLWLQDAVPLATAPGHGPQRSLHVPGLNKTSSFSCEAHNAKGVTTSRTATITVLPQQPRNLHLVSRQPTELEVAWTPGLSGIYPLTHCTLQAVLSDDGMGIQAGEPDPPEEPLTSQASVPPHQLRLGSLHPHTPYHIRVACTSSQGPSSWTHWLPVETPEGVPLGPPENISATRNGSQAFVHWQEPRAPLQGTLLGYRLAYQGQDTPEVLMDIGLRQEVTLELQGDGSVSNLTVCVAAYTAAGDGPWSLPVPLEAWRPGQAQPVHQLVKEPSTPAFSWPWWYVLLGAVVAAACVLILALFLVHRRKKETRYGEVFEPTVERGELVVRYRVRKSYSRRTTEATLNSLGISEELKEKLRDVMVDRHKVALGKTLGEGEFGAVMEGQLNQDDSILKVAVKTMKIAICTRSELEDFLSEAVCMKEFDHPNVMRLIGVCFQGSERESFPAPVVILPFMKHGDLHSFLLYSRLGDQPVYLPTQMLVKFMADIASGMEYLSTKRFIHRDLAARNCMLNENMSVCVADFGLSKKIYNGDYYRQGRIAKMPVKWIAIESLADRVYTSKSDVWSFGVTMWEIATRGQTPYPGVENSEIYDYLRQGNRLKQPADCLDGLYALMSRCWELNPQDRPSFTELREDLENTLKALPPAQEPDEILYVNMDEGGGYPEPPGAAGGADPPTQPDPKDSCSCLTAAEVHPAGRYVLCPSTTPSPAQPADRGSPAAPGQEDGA
# Assay: Phospho-Akt in-cell Western assay (inhibition of Axl activity)
# Type: cell-based
# Conditions: Hela cells; 1 hr pre-treatment; stimulation by Axl-antibody cross-linking; phospho-Akt chemiluminescence normalized to relative cell number
# Method: The compounds of the invention were tested in the following assay for their ability to inhibit Axl activity.
# Phospho-Akt in-Cell Western Assay
# • Cell culture plate: 96 well assay plate (Corning 3610), white, clear bottom, tissue-culture treated. • Cells: Hela cells. • Starvation medium: For Axl stimulation: 0.5% FCS (fetal calf serum) in DMEM, plus Axl/Fc (extracellular domain of AXL fused to immunoglobulin Fc region) (R&D, 154-AL) 500 ng/mL. • For EGF (epidermal growth factor) stimulation: 0.5% FCS in DMEM (Dulbecco's modified Eagles medium). • Poly-L-Lysine 0.01% solution (the working solution): […], dilute In PBS (phosphate buffered saline). • Axl antibody cross-linking: • 1st: Mouse anti-Axl (R&D, MAB154). • 2nd: Biotin-SP-conjugated AffiniPure goat anti-mouse IgG (H+ L) (Jackson ImmunoResearch #115-065-003). • Fixing buffer: 4% formaldehyde in PBS. • Wash buffer: 0.1% TritonX-100 in PBS. • Quenching buffer: 3% H2O2, 0.1% Azide in wash buffer, Azide and hydrogen peroxide (H2O2) are added fresh. • Blocking buffer: 5% BSA in TBST (tris buffered saline plus 0.1% Tween 20). • Primary antibody: Rabbit anti-human Phospho-Akt antibody (Cell Signaling 9271): 1×250 diluted in blocking buffer. • Secondary antibody: HRP (horse radish peroxidase)-conjugated Goat anti-Rabbit secondary, stock solution: Jackson ImmunoResearch (Goat anti-Rabbit HRP, #111-035-144) 1:1 diluted in glycerol, store at −20° C. The working solution: 1×2000 dilution of stock in blocking buffer. • Chemiluminescent working solution (Pierce, 37030): SuperSignal ELISA (enzyme linked immunosorbant assay) Pico Chemiluminescent substrate. • Crystal Violet solution: Stock: 2.5% Crystal violet in methanol, filtered and kept at ambient temperature. The working solution: dilute the stock 1:20 with PBS immediately before use. • 10% SDS: working solution: 5% SDS (sodium dodecylsulfate), diluted in PBS Methods: Day 1:
# A 96 well TC (tissue culture treated) plate was coated with 10 μg/mL poly-L-Lysine at 37° C. for 30 min, washed twice with PBS, and air-dried for 5 minutes before cells were added. Hela cells were seeded at 10,000 cells/well and the cells were starved in 100 μL starvation medium containing Axl/Fc for 24 hrs.
# The cells were pre-treated with test compounds by adding 100 μL of 2× test compound to the starvation medium on the cells. The cells were incubated at 37° C. for 1 hr before stimulation.
# The cells were stimulated by Axl-antibody cross-linking as follows: A 5× 1st/2nd Axl antibody mixture was made (37.5 μg/mL 1st/100 μg/mL 2nd) in starvation medium and nutated at 4° C. with thorough mixing for 1-2 hours for clustering. The resulting mix was warmed to 37° C. 50 μL of 5× Axl 1st/2nd of antibody cluster was added to the cells and the cells were incubated at 37° C. for 5 min.
# After 5 minutes stimulation, the plate was flicked to remove medium and the plate was tapped onto paper towels. Formaldehyde (4.0% in PBS, 100 μL) was added to fix the cells and the cells were incubated at ambient temperature for 20 min without shaking.
# The cells were washed with a plate washer buffer to remove the formaldehyde solution. The plate was flicked to removed excess wash buffer and tapped onto paper towels. Quenching buffer (100 μL) was added to each well and the cells were incubated at ambient temperature for 20 minutes without shaking.
# The cells were washed with a plate washer buffer to remove the quenching buffer. Blocking buffer (100 μL) was added and the cells were incubated at ambient temperature for at least an hour with gentle shaking.
# The cells were washed with a plate washer buffer and diluted primary antibody (50 μL) was added to each well (blocking buffer was added to the negative control wells instead). The plates were incubated overnight at 4° C. with gentle shaking.
# The wash buffer was removed, diluted secondary antibody (100 μL) was added, and the cells were incubated at ambient temperature for 1 hour with gentle shaking. […]
row,SMILES,pIC50
1,"CCOC(=O)N1CCN(c2ccc(Nc3nc(N)n(-c4ncc5c(n4)CCCCCC5)n3)cc2F)CC1 [Compound 14, ethyl 4-(4-(5-amino-1-(5,6,7,8,9,10-hexahydrocycloocta[d]pyrimidin-2-yl)-1H-1,2,4-triazol-3-ylamino)-2-fluorophenyl)piperazine-1-carboxylate]",5.00 to 6.00
2,"COc1cc2ncnc(-n3nc(Nc4ccc5c(c4)C(=O)NCCCC5)nc3N)c2cc1OC [Compound 50, N^3-(1-oxo-1,2,3,4,5,6-hexahydrobenzo[c]azocin-9-yl)-1-(6,7-dimethoxyquinazolin-4-yl)-1H-1,2,4-triazole-3,5-diamine]",> 6.00
3,"Nc1nc(Nc2ccc(N3CCN(C4CC5CCC4C5)CC3)cc2)nn1-c1ncc2c(n1)CCCCCC2 (stereo not drawn) [Compound 3, N^3-(4-(4-(bicyclo[2.2.1]heptan-2-yl)piperazin-1-yl)phenyl)-1-(5,6,7,8,9,10-hexahydrocycloocta[d]pyrimidin-2-yl)-1H-1,2,4-triazole-3,5-diamine]",> 6.00
4,"Nc1nc(Nc2ccc(OCCN3CCCC3)cc2)nn1-c1ncc2c(n1)CCCCCC2 [Compound 1, 1-(5,6,7,8,9,10-hexahydrocycloocta[d]pyrimidin-2-yl)-N^3-(4-(2-(pyrrolidin-1-yl)ethoxy)phenyl)-1H-1,2,4-triazole-3,5-diamine]",> 6.00
5,"Nc1nc(Nc2ccc(OCCN3CCCC3)cc2)nn1-c1cc(-c2ccccc2)c2c(n1)CCCCCC2 [Compound 47, N^3-(4-(2-(pyrrolidin-1-yl)ethoxy)phenyl)-1-(4-phenyl-5,6,7,8,9,10-hexahydrocycloocta[b]-pyridin-2-yl)-1H-1,2,4-triazole-3,5-diamine]",5.00 to 6.00
6,"Nc1nc(Nc2ccc(N3CCC(N4CCCCCC4)CC3)nc2)nn1-c1ncnc2c1CCCCCC2 [Compound 51, N^3-(6-(4-(azepan-1-yl)piperidin-1-yl)pyridin-3-yl)-1-(5,6,7,8,9,10-hexahydrocycloocta[d]pyrimidin-4-yl)-1H-1,2,4-triazole-3,5-diamine]",> 6.00
7,"CN1CCN(c2ccc(Nc3nc(N)n(-c4ncc5c(n4)CCCCCC5)n3)cc2)CC1 [Compound 2, 1-(5,6,7,8,9,10-hexahydrocycloocta[d]pyrimidin-2-yl)-N^3-(4-(4-methylpiperazin-1-yl)phenyl)-1H-1,2,4-triazole-3,5-diamine]",> 6.00
8,"Nc1nc(Nc2ccc(OCCN3CCCC3)cc2)nn1-c1ncnc2c1CCCCCC2 [Compound 20, 1-(5,6,7,8,9,10-hexahydrocycloocta[d]pyrimidin-4-yl)-N^3-(4-(2-(pyrrolidin-1-yl)ethoxy)phenyl)-1H-1,2,4-triazole-3,5-diamine]",> 6.00

# Other lines, results leading:
row,pIC50,SMILES
1,> 6.00,"Cc1csc2c(-n3nc(Nc4ccc5c(c4)CCCN(C4CCCC4)CC5)nc3N)ncnc12 [Compound 41, N^3-(3-cyclopentyl-1,2,3,4,5,6-hexahydrobenzo[d]azocin-8-yl)-1-(7-methylthieno[3,2-d]pyrimidin-4-yl)-1H-1,2,4-triazole-3,5-diamine]"
2,> 6.00,"Cc1csc2c(-n3nc(Nc4cnc5c(c4)CCC(NC4CCCCC4)CCC5)nc3N)ncnc12 (stereo not drawn) [Compound 43, N^3-(7-(cyclohexylamino)-5,6,7,8,9,10-hexahydrocycloocta[b]pyridin-3-yl)-1-(7-methylthieno[3,2-d]pyrimidin-4-yl)-1H-1,2,4-triazole-3,5-diamine]"
3,> 6.00,"Nc1nc(Nc2ccc(N3CCN(C4CCCCC4)CC3)c(Cl)c2)nn1-c1ncc2c(n1)CCCCCC2 [Compound 8, N^3-(3-chloro-4-(4-cyclohexylpiperazin-1-yl)phenyl)-1-(5,6,7,8,9,10-hexahydrocycloocta[d]pyrimidin-2-yl)-1H-1,2,4-triazole-3,5-diamine]"
4,> 6.00,"Cc1csc2c(-n3nc(Nc4cnc5c(c4)CCC(=O)CCC5)nc3N)nc(Cl)nc12 [Compound 34, 1-(2-chloro-7-methylthieno[3,2-d]pyrimidin-4-yl)-N^3-(7-oxo-5,6,8,9,10-pentahydrocycloocta[b]pyridin-3-yl)-1H-1,2,4-triazole-3,5-diamine]"
5,> 6.00,"Nc1nc(Nc2ccc(N3CCC(N4CCCC4)CC3)c(F)c2)nn1-c1cc2c(nn1)CCCCCC2 [Compound 17, N^3-(3-fluoro-4-(4-(pyrrolidin-1-yl)piperidin-1-yl)phenyl)-1-(5,6,7,8,9,10-hexahydrocycloocta[c]pyridazin-3-yl)-1H-1,2,4-triazole-3,5-diamine]"
6,> 6.00,"COc1cc2ncnc(-n3nc(Nc4ccc5c(c4)CCCN(C4CCCC4)CC5)nc3N)c2cc1OC [Compound 27, N^3-(3-cyclopentyl-1,2,3,4,5,6-hexahydro-benzo[d]azocin-8-yl)-1-(6,7-dimethoxy-quinazolin-4-yl)-1H-[1,2,4]triazole-3,5-diamine]"
7,> 6.00,"CN1CCCN(c2ccc(Nc3nc(N)n(-c4ncc5c(n4)CCCCCC5)n3)cc2F)CC1 [Compound 4, N^3-(3-fluoro-4-(4-methyl-1,4-diazepan-1-yl)phenyl)-1-(5,6,7,8,9,10-hexahydrocycloocta[d]pyrimidin-2-yl)-1H-1,2,4-triazole-3,5-diamine]"
8,> 6.00,"Cc1csc2c(-n3nc(Nc4cnc5c(c4)CCC(N4CCCC4)CCC5)nc3N)nc(Cl)nc12 (stereo not drawn) [Compound 37, 1-(2-chloro-7-methylthieno[3,2-d]pyrimidin-4-yl)-N^3-(7-(pyrrolidin-1-yl)-5,6,7,8,9,10-hexahydrocycloocta[b]pyridin-3-yl)-1H-1,2,4-triazole-3,5-diamine]"
9,> 6.00,"Cc1csc2c(-n3nc(Nc4ccc5c(c4)CC(N4CCCC4)CCCC5)nc3N)nc(Cl)nc12 (stereo not drawn) [Compound 29, 1-(2-chloro-7-methylthieno[3,2-d]pyrimidin-4-yl)-N^3-(9-(pyrrolidin-1-yl)-5,6,7,8,9,10-hexahydrobenzo[8]annulen-2-yl)-1H-1,2,4-triazole-3,5-diamine]"
10,> 6.00,"Cc1csc2c(-n3nc(Nc4ccc5c(c4)OCCCCO5)nc3N)nc(Cl)nc12 [Compound 28, 1-(2-chloro-7-methylthieno[3,2-d]pyrimidin-4-yl)-N^3-(2,3,4,5-tetrahydrobenzo[b][1,4]dioxocin-8-yl)-1H-1,2,4-triazole-3,5-diamine]"
